Reference: patent US12673939B2, “Methods of synthesis of heteroaryl derivatives of triazolyl acrylamides and crystalline forms” (Karyopharm Therapeutics Inc., priority 2021, dated 2026)

Assay: Dynamic vapor sorption (DVS) moisture sorption isotherm
Type: physicochemical
Conditions: reversible; from 0 to 90% RH; 25° C.
Protocol: The crystalline Form I provided can be additionally characterized by dynamic vapor sorption (DVS), wherein a sample is subjected to varying conditions of humidity and temperature, and the response of the sample is measured gravimetrically. The result of a DVS analysis particularly can be a dual curve providing sample weight percent as a function of relative humidity (RH) over time, a dual curve providing sample water content as a function of RH over time, a curve providing weight percent in relation to RH, or a curve providing water content in relation to RH. Equipment useful for measuring such data is known in the art, and any such equipment can be used to measure the compounds according to the present disclosure. In certain embodiments, DVS analysis can be carried out by scanning at a series of specific RH values. […]
Sorption isotherms were obtained using a SMS DVS Intrinsic moisture sorption analyser, controlled by DVS Intrinsic Control software v1.0.1.2 (or v 1.0.1.3). […] The relative humidity (RH) was measured by a calibrated Rotronic probe (dynamic range of 1.0-100% RH), located near the sample. The weight change, (mass relaxation) of the sample as a function of % RH was constantly monitored by the microbalance (accuracy±0.005 mg). […]
The sample was recovered after completion of the isotherm and re-analyzed by XRPD.

water adsorption (dynamic vapor sorption): 0.12 % w/w
SMILES: NC(=O)/C(=C/n1cnc(-c2cc(C(F)(F)F)cc(C(F)(F)F)c2)n1)c1cncnc1 [Crystalline Form I, (E)-3-(3-(3,5-bis(trifluoromethyl)phenyl)-1H-1,2,4-triazol-1-yl)-2-(pyrimidin-5-yl)acrylamide]
